Experimental data reported in article PMC5282547, “The Proline/Arginine Dipeptide from Hexanucleotide Repeat Expanded C9ORF72 Inhibits the Proteasome” (eNeuro, 2017).
Where no end group is shown, it is not given here.

Columns and labels:
[1] = system: phosphorylated S6K and 4EBP1; assay: Immunoblot for mTOR pathway activation; format: cell-based, rat; details: 2 µM, 48 h, immunoblot normalized to actin
Method: (§1) All plates were incubated with PR20 for 48 h.
Once scanning of the nitrocellulose membranes probed for 4EBP1/P-4EBP1 and S6K/P-S6K had been completed, Restore Western Blot Stripping Buffer (Thermo Fisher Scientific) was used to strip the blot of antibodies. The membranes were washed twice in PBS-T for 10 min each and then placed in the stripping buffer for 22 min. The membranes were then washed twice once again in PBS-T for 10 min. They were then placed in blocking solution (5% w/v milk in PBS-T) for 45 min.

[2] = system: phosphorylated AMPK; assay: Immunoblot for mitochondrial dysfunction; format: cell-based, rat; details: 2 µM, 48 h, immunoblot normalized to actin
Method: as §1

[3] = system: ubiquitin-proteasome system; assay: MG-132 flux assay (flux of ubiquitylated substrates through the UPS); format: cell-based, rat
Method: MG-132 (Sigma) was used to inhibit proteasomal function. Cells were initially treated with PR20 for a total of 48 h using the method outlined in PR20 treatment for biochemical assays. Four hours prior to lysis, these cells were treated with MG-132 or vehicle. The MG-132 was kept in a stock solution in DMSO. This was added directly to culture to achieve a final concentration of 5 μM. Cells were then lysed in RIPA buffer and immunoblotted for ubiquitin.
Ubiquitin analysis requires the use of deubiquitinase (DUB) inhibitors. Lysis without these inhibitors runs the risk of degradation of the substrates to be targeted. As such, N-ethylmaleimide (Sigma), a potent DUB inhibitor, was used in the lysis buffer. […] The remainder of the lysis procedure follows Cell lysis.
To test for group differences in the flux assay, a permutation test was used. This is a nonparametric statistical test that was implemented in MATLAB. […] The test first quantifies this by taking the average of each experimental group and then finding the difference of ratios. It then permutes two samples located in two groups randomly, and determines that difference between averages again. This is repeated 50,000 times, and a histogram is plotted. This histogram represents the distribution of random noise in the sample. Since a higher difference in the +MG132/−MG132 ratio is a more “significant” result, the percentage of the random noise produced from 50,000 permutations that is higher in magnitude than the true difference (calculated from un-permuted data) is the p value.
Permutations of a data point in a +MG132 into a group labeled −MG132 (or vice versa) were not allowed. […] Thus, this group difference was not interesting to us.

[4] = system: Dendra2-LC3; assay: Autophagic flux assay, optical pulse labeling of Dendra2-LC3; format: cell-based, rat; details: 2 µM peptide, primary spinal neurons, single-cell optical pulse labeling
Method: Primary spinal neurons were dissected from E15 rat pups and cultured at a density of 2.5 × 10^5 cells/ml on a laminin/poly-lysine-coated 96-well plate in motor neuron media. Four days after plating, neurons were transfected with Lipofectamine 2000 (Invitrogen). DNA-Lipofectamine mixtures were incubated with neurons for 20 min followed by rinsing. Neurons were then placed in 100 µL of conditioned media that was collected immediately prior to transfection and half fresh motor neuron media containing 4 µM PR20, resulting in a final concentration of 2 µM PR20.
Optical pulse labeling experiments were performed using an automated microscopy platform previously described by [Arrasate et al. (2004)] and [Barmada et al. (2014)]. A Nikon Eclipse Ti inverted microscope equipped with a PerfectFocus system, 20× objective lens and an Andor iXon3 897 EMCCD camera were used to acquire images. Samples were illuminated with a Sutter Instruments Lamba XL lamp. The microscope and related components were encased in custom-built plexiglass enclosure set to maintain the temperature at 37°C and CO2 at 5%. Semrock GFP and TRITC filters were used for excitation and detection. A Semrock 405-nm long-pass filter was used for photoactivation. Image acquisition and stage movements were accomplished in an automated fashion using µManager and original code written in BeanShell. For all experiments, photoconversion occurred 24 h following transfection. GFP and TRITC images were acquired immediately following activation and subsequently every 2 h for 12 h. Images were acquired in a similar 12-h window starting 48 h after PR20 treatment. Using in-house image analysis scripts, neuronal cell bodies were identified based on their fluorescent intensity and morphology, and a ROI was drawn around the perimeter of each cell at each time. Single-cell TRITC intensity values were recorded and used to fit a first order exponential decay curve for individual neurons and calculate a Dendra2-light chain 3 (LC3) half-life for each cell. […]

[5] = system: human proteasomes; assay: Direct interaction with human proteasomes (streptavidin pull-down, anti-HA immunoblot); format: binding; details: 2 µM HA-tagged peptide, HEK293T extracts with HTBH-tagged β4 subunits, 2 h at 4 °C
Method: Whole-cell extracts from a stable HEK293T cell line harboring HTBH-tagged β4 subunits were prepared as in Han et al. (2014) and incubated with HA-tagged PR20 or GR20 peptides (2 µM) 2 h at 4 °C. The resulting proteasome-dipeptide complexes were pull-downed with streptavidin agarose beads (Millipore) for 3 h at 4 °C. Unbound proteasomes in the supernatants were discarded, and the pellets were mixed with 2× SDS sample buffer. Different amounts of samples were resolved by SDS-PAGE/immunoblotting against HA and a proteasome core particle α3 subunit.

[6] = system: motor neurons; assay: Motor neuron survival with IU1 co-treatment; format: cell-based, rat; details: PR20 treatment without IU1, 5 d
Method: Days in vitro (DIV)14 mixed spinal cord cultures were exposed to PR20 or GR20 by addition of synthetic peptide to the media one time. Cultures were fixed 5 d later with freshly prepared 4% paraformaldehyde for 20 min, washed extensively with 0.1 M PBS, pH 7.4, and immunostained with SMI32 to identify motor neurons. […] Motor neurons were counted in three nonoverlapping, randomly selected fields on a coverslip using a 5[times objective, and the values from a single coverslip averaged.
For experiments involving IU1, DIV14 cultures were treated with PR20 or its vehicle, and every other day, IU1 (or vehicle) was added to the culture media to achieve a final concentration of 5 µM. At DIV19, cultures were fixed and motor neuron number determined as described above.

[7] = system: U2OS cells and human astrocytes; details: depending on the specific assay; ref Kwon et al., 2014; cited from earlier work
Source text: The difficulty of distinguishing between toxic HRE mRNA and DPR proteins has impeded our understanding of the mechanism underlying C9ORF72 HRE pathophysiology. As reported in Science ([Kwon et al., 2014]), the McKnight lab devised a strategy to overcome this problem: they studied U2OS cells and human astrocytes directly exposed to synthetic DPR proteins. […] We built upon this approa ...

[8] = system: human astrocytes; details: DPR applied repeatedly; ref Kwon et al. (2014); cited from earlier work
Source text: We draw a number of conclusions from these experiments.

Sequence: PRPRPRPRPRPRPRPRPRPRPRPRPRPRPRPRPRPRPRPRYPYDVPDYA [PR20]
- activation level of the mTOR pathway versus vehicle [1]: no statistically significant differences
- mitochondrial dysfunction (phosphorylated AMPK) versus vehicle [2]: no statistically significant differences
- proteasomal flux versus vehicle after 2 h of exposure ([3]; 2 h PR20, ±MG132, n = 6 per group, p = 0.38): no statistically significance
- proteasomal flux (difference in ubiquitin +/- MG-132) versus vehicle ([3]; peptide 48 h (PR20 2 µM), then MG-132 5 µM or vehicle 4 h, permutation test): reduced
- extension of Dendra2-LC3 half-life compared with control [4]: ~5.6 h
- association with proteasomes in pull-down [5]: associates with proteasomes
- loss of motor neurons [6]: approximately 50%
- toxic concentration range [7]: 10 to 30 µM
- LD50 that kills human astrocytes [8]: 8.4 µM
